# Assay results as given in the supplement of paper PMC10307832.
# Experiments:
# Experiment in all cases: relative viability (nuclei count vs DMSO), 5 days (fraction); higher = more cells survive
# RU-SKI 43 + AZD7762 = compound: CC[C@@H](C)CNCC(=O)N1CCC2=C([C@@H]1COC3=CC=CC(=C3)C)C=CS2 [RU-SKI 43] + NC(=O)Nc1cc(-c2cccc(F)c2)sc1C(=O)N[C@H]1CCCNC1 [AZD7762] (partner 0.2 µM)
# Method in brief: (§1)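 Lung cancer cell lines in 1536-well plates got either a single drug or a fixed anchor-drug dose together with five library-drug doses (not always all listed) in √10 steps, by pin tool, on the day after seeding. Nuclei were counted after 5 days, and relative viability is the treated-to-vehicle ratio of nuclei counts. Values are medians of duplicate plates.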
# Irinotecan + AZD7762 = compound: CCc1c2c(nc3ccc(OC(=O)N4CCC(N5CCCCC5)CC4)cc13)-c1cc3c(c(=O)n1C2)COC(=O)[C@]3(O)CC [Irinotecan] + NC(=O)Nc1cc(-c2cccc(F)c2)sc1C(=O)N[C@H]1CCCNC1 [AZD7762] (partner 0.2 µM)
# Method in brief: as §1
# RU-SKI 43 + Dasatinib = compound: CC[C@@H](C)CNCC(=O)N1CCC2=C([C@@H]1COC3=CC=CC(=C3)C)C=CS2 [RU-SKI 43] + Cc1nc(Nc2ncc(C(=O)Nc3c(C)cccc3Cl)s2)cc(N2CCN(CCO)CC2)n1 [Dasatinib] (partner 0.075 µM)
# Method in brief: as §1
# MK-8033 + Olaparib = compound: Cn1cc(-c2cnc3ccc4ccc(CS(=O)(=O)NCc5ccccn5)cc4c(=O)c3c2)cn1 [MK-8033] + O=C(c1cc(Cc2n[nH]c(=O)c3ccccc23)ccc1F)N1CCN(C(=O)C2CC2)CC1 [Olaparib] (partner 8 µM)
# Method in brief: as §1
Cell Line,relative viability (RU-SKI 43 + AZD7762; first compound 0.1 µM),relative viability (RU-SKI 43 + AZD7762; first compound 0.3162 µM),relative viability (RU-SKI 43 + AZD7762; first compound 1 µM),relative viability (RU-SKI 43 + AZD7762; first compound 3.162 µM),relative viability (RU-SKI 43 + AZD7762; first compound 10 µM),relative viability (Irinotecan + AZD7762; first compound 2 µM),relative viability (Irinotecan + AZD7762; first compound 6.325 µM),relative viability (Irinotecan + AZD7762; first compound 20 µM),relative viability (RU-SKI 43 + Dasatinib; first compound 0.1 µM),relative viability (RU-SKI 43 + Dasatinib; first compound 0.3162 µM),relative viability (RU-SKI 43 + Dasatinib; first compound 1 µM),relative viability (RU-SKI 43 + Dasatinib; first compound 3.162 µM),relative viability (RU-SKI 43 + Dasatinib; first compound 10 µM),relative viability (MK-8033 + Olaparib; first compound 0.02 µM),relative viability (MK-8033 + Olaparib; first compound 0.06325 µM),relative viability (MK-8033 + Olaparib; first compound 0.2 µM),relative viability (MK-8033 + Olaparib; first compound 0.6325 µM),relative viability (MK-8033 + Olaparib; first compound 2 µM),relative viability (Irinotecan + AZD7762; first compound 0.6325 µM)
NCI-H1993,0.677,0.775,0.807,0.712,0.688,0.681,0.508,0.603,0.608,0.516,0.653,0.778,0.533,0.996,1.01,0.705,0.946,0.669,
NCI-H1755,0.42,0.504,0.46,0.411,0.359,0.47,0.345,0.327,0.417,0.474,0.469,0.521,0.379,0.899,0.916,0.863,0.846,0.735,0.53
PC-14,0.392,0.377,0.441,0.32,0.379,0.431,0.232,0.199,0.242,0.25,0.283,0.241,0.183,0.249,0.27,0.299,0.321,0.271,0.306
NCI-H358,0.475,0.585,0.574,0.591,0.484,0.508,0.339,0.349,0.166,0.127,0.131,0.151,0.167,0.561,0.553,0.577,0.715,0.57,0.38
LK-2,0.342,0.372,0.486,0.49,0.468,0.388,0.222,0.281,0.308,0.248,0.315,0.295,0.251,0.974,0.694,0.765,0.678,0.81,0.316
HCC-827,0.188,0.155,0.206,0.223,0.197,0.193,0.203,0.182,0.249,0.267,0.319,0.298,0.331,0.653,,0.644,0.561,0.488,0.201
LCLC-97TM1,0.373,0.184,0.255,0.303,0.239,0.143,0.105,0.116,0.961,0.919,0.974,0.811,0.796,0.346,0.387,,0.406,0.256,0.0915
EMC-BAC-2,1.1,1.1,1.27,1.13,1.09,0.696,0.327,0.287,0.334,0.299,0.362,0.317,0.296,0.501,0.477,0.473,0.49,0.479,0.942
NCI-H647,0.358,0.553,0.583,0.44,0.499,0.273,0.131,0.2,0.155,0.226,0.223,0.192,0.135,0.7,0.476,0.479,0.661,0.515,0.294
NCI-H1944,0.591,0.579,0.447,0.589,0.502,0.276,0.21,0.153,0.209,0.223,0.213,0.211,0.2,0.402,0.365,0.39,0.39,0.415,0.414
PC-3 [JPC-3],0.885,0.671,0.828,0.834,0.336,0.864,0.463,0.398,1.07,1.09,0.973,0.968,0.939,1.08,,1.04,1.16,1.09,0.465
NCI-H1975,0.763,0.748,0.97,0.671,0.803,0.7,0.527,0.322,0.357,0.461,0.441,0.356,0.401,0.721,0.757,0.789,0.77,0.78,0.826
HARA,0.469,0.243,0.301,0.357,0.279,0.278,0.154,0.255,0.288,0.317,0.303,0.34,0.156,0.558,0.542,0.761,0.732,0.639,0.2
H3255,0.843,1.02,1.03,0.839,0.873,0.611,0.354,0.388,0.364,0.387,0.578,0.393,0.309,0.567,0.504,0.561,0.57,0.537,0.713
NCI-H727,,0.707,0.724,0.638,0.543,0.575,0.406,0.342,0.438,0.285,0.426,0.473,0.307,0.679,0.603,0.337,0.702,0.808,0.462
EKVX,0.605,0.714,0.874,0.707,0.658,0.632,0.426,0.246,0.457,0.413,0.524,0.57,0.618,0.85,0.842,0.825,0.763,0.859,
NCI-H1666,0.884,0.754,0.956,0.774,0.78,0.687,0.552,0.503,0.772,0.922,0.799,0.763,0.699,0.755,0.683,0.659,0.82,0.774,0.815
